Source: patent US7029857B1, “Processes for obtaining compounds employing SNORF72 receptors” (H. Lundbeck A/S, priority 1999, dated 2006)
No end group written: not given here.

Tests used:
Assay type in all cases: cell-based
SNORF62 [1] = molecular target: T1, SNORF62 (Homo sapiens, UniProt Q9HB89); assay: Inositol phosphate (IP) release in SNORF62-transfected COS-7 cells; parameters: The SNORF62 cDNA codes for a protein of 426 amino acids; expressed in transfected cells; host or cells: COS-7 (transient, DEAE-dextran)
T1 sequence (Q9HB89 1-426): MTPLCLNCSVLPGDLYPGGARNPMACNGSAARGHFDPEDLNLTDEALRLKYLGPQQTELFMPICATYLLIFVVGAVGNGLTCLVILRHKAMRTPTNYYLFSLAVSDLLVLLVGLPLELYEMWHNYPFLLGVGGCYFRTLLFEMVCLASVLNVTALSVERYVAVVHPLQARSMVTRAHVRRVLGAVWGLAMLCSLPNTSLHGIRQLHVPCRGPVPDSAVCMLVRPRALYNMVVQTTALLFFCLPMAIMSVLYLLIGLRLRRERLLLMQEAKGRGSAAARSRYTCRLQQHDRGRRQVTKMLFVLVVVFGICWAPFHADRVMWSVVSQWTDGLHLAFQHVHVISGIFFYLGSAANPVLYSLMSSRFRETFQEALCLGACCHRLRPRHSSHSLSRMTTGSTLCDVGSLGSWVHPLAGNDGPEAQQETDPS
Procedure: Human SNORF62 receptor-mediated activation and human SNORF72 receptor-mediated activation of the inositol phosphate (IP) second messenger pathways were assessed by radiometric measurement of IP products.
For example, in a 96 well microplate format assay, COS-7 cells expressing the receptor of interest were plated at a density of 70,000 cells per well and allowed to incubate for 24 hours. The cells were then labeled with 0.5 μCi [^3H]myo-inositol overnight at 37° C., 5% CO2. Immediately before the assay, the medium was removed and replaced with 180 μL of Phosphate-Buffered Saline (PBS) containing 10 mM LiCl. The plates were then incubated for 20 min at 37° C., 5% CO2. Following the incubation, the cells were challenged with agonist (20 μl/well; 10× concentration) for 30 min at 37° C. The challenge was terminated by the addition of 100 μL of 5% v/v trichloroacetic acid, followed by incubation at 4° C. for greater than 30 minutes. Total IPs were isolated from the lysate by ion exchange chromatography. Briefly, the lysed contents of the wells were transferred to a Multiscreen HV filter plate (Millipore) containing Dowex AG1-X8 (200–400 mesh, formate form). The filter plates were prepared adding 100 μL of Dowex AG1-X8 suspension (50% v/v, water: resin) to each well. The filter plates were placed on a vacuum manifold to wash or elute the resin bed. Each well was first washed 2 times with 200 μl of 5 mM myo-inositol. Total [^3H]inositol phosphates were eluted with 75 μl of 1.2M ammonium formate/0.1M formic acid solution into 96-well plates. 200 μL of scintillation cocktail was added to each well, and the radioactivity was determined by liquid scintillation counting.

SNORF62 [2] = molecular target: T1, SNORF62; assay: Intracellular Ca2+ release (FLIPR) in SNORF62-transfected COS-7 cells; parameters: The SNORF62 cDNA codes for a protein of 426 amino acids; expressed in transfected cells; host or cells: COS-7 (transient, DEAE-dextran)
SNORF62 [3] = molecular target: T1, SNORF62; assay: Calcium-activated Cl- currents in Xenopus oocytes injected with SNORF62 mRNA; parameters: from linearized plasmids or PCR products containing the complete coding region of the gene; expressed in transfected cells; host or cells: Xenopus laevis oocytes injected with in vitro transcribed SNORF62 mRNA; conditions: 1 μM peptide, n=3
Procedure: Heterologous expression of GPCRs in Xenopus oocytes has been widely used to determine the identity of signaling pathways activated by agonist stimulation (Gundersen et al., 1983; Takahashi et al., 1987). Activation of the phospholipase C (PLC) pathway is assayed by applying a test compound in ND96 solution to oocytes previously injected with mRNA for the human SNORF62 and observing inward currents at a holding potential of approximately −80 mV. The appearance of currents that reverse at −25 mV and display other properties of the Ca^++-activated Cl^− channel is indicative of receptor-acitivation of PLC and release of IP3 and intracellular Ca^++.
In the present invention, oocytes were harvested from Xenopus laevis and injected with mRNA transcripts as previously described (Quick and Lester, 1994; Smith et al., 1997). SNORF62 mRNA transcript was synthesized using the T7 polymerase (“Message Machine”, Ambion) from linearized plasmids or PCR products containing the complete coding region of the gene. Oocytes were injected with 1–50 ng synthetic receptor RNA and incubated for 3–8 days at 17° C. Currents were recorded under dual electrode voltage clamp (Axon Instruments Inc.) with 3 M KCl-filled glass microelectrodes having resistances of 1–2 Mohm. Unless otherwise specified, oocytes were voltage clamped at a holding potential of −80 mV. […]

Substance: FRVDEEFQSPFASQSRGYFLFRPRN-NH2 [human NMU-25, FRVDEEFQSPFASQSRGYFLFRPRN—NH2]
- release of IP second messengers above basal (SNORF62 [1]): approximately 2 fold
- Ca2+ release response following pretreatment with pertussis toxin (SNORF62 [2]; pertussis toxin 100 ng/ml for 18-20 hours, n=2, data not shown): present
- EC50 (SNORF62 [2]; stimulation of Ca2+ release, SNORF62-transfected COS-7 cells, n = 2-7 (Table 1A)): 4 ± 1.3 nM
- current amplitude (SNORF62 [3]): 1065±211 nA
